Laboratory results from patent US7855166B2, “Sulfonylamino(thio)carbonyl compounds” (Bayer Cropscience GmbH, priority 2005, dated 2010).

Legend:
[1] = test system: weed plants such as Sinapis alba, Chrysanthemum segetum, Avena sativa, Stellaria media, Echinochloa crus-galli, Lolium multiflorum, Setaria viridis, Abutilon …; assay: Pre-emergence effect on weeds (greenhouse pot test, visual scoring); assay type: in vivo; conditions: applied pre-emergence at a rate of 0.3 kg or less of active substance per hectare; scored after 3 to 4 weeks in comparison to untreated controls
[2] = test system: weed plants such as Sinapis alba, Echinochloa crus-galli, Lolium multiflorum, Chrysanthemum segetum, Setaria viridis, Abutilon theophrasti, Amaranthus …; assay: Post-emergence effect on weeds (greenhouse pot test, visual scoring); assay type: in vivo; conditions: applied post-emergence (three-leaf stage) at a rate of 0.3 kg or less of active substance per hectare; scored after about 3 to 4 weeks in comparison to untreated controls

Compound | herbicidal action against weed plants (visual scoring of plant damage or emergence damage) [1] | herbicidal action against weed plants (effect scored visually) [2]
CCOc1nn(C(=O)NS(=O)(=O)c2c(I)cccc2OC(C)C(F)(F)F)c(=O)n1C (stereo not shown) [Compound 1.525] | very good herbidical action | very good herbicidal action
CCOc1nn(C(=O)NS(=O)(=O)c2c(OC)ccc(Cl)c2I)c(=O)n1C [Compound 1.817] | very good herbidical action | very good herbicidal action
CCOc1nn(C(=O)NS(=O)(=O)c2c(Cl)ccc(Cl)c2I)c(=O)n1C1CC1 [Compound 1.854] | very good herbidical action | very good herbicidal action
CCOc1nn(C(=O)NS(=O)(=O)c2c(I)cccc2OCC2CC2)c(=O)n1C [Compound 1.349] | very good herbidical action | very good herbicidal action
CCOc1cccc(I)c1S(=O)(=O)NC(=O)n1nc(OC)n(C)c1=O [Compound 1.211] | very good herbidical action | very good herbicidal action
CCCOc1nn(C(=O)NS(=O)(=O)c2c(I)cccc2OCC(F)(F)C(F)(F)F)c(=O)n1C1CC1 [Compound 1.558] | very good herbidical action | very good herbicidal action
COc1nn(C(=O)NS(=O)(=O)c2ccc(Cl)cc2I)c(=O)n1C [Compound 1.869] | very good herbidical action | very good herbicidal action
CCCOc1nn(C(=O)NS(=O)(=O)c2c(I)cccc2OCC(F)(F)C(F)(F)F)c(=O)n1C [Compound 1.549] | very good herbidical action | very good herbicidal action
CC(C)Oc1nn(C(=O)NS(=O)(=O)c2c(Cl)ccc(Cl)c2I)c(=O)n1C [Compound 1.852] | very good herbidical action | very good herbicidal action
COc1nn(C(=O)NS(=O)(=O)c2c(Cl)cc(C(F)(F)F)cc2I)c(=O)n1C [Compound 1.842] | very good herbidical action | very good herbicidal action
CCOc1nn(C(=O)NS(=O)(=O)c2ccccc2I)c(=O)n1C [Compound 1.004] | very good herbidical action | very good herbicidal action
COc1nn(C(=O)NS(=O)(=O)c2cccc(Cl)c2I)c(=O)n1C [Compound 1.828] | very good herbidical action | very good herbicidal action
CCCOc1nn(C(=O)NS(=O)(=O)c2c(I)cccc2OCC2CC2)c(=O)n1C1CC1 [Compound 1.359] | very good herbidical action | very good herbicidal action
CCOc1nn(C(=O)NS(=O)(=O)c2c(I)cccc2OC(C)C)c(=O)n1C [Compound 1.254] | very good herbidical action | very good herbicidal action
CCOc1nn(C(=O)NS(=O)(=O)c2c(I)cccc2OS(C)(=O)=O)c(=O)n1C [Compound 1.712] | very good herbidical action | very good herbicidal action
CCCCc1ccc(S(=O)(=O)NC(=O)n2nc(OCCC)n(C)c2=O)c(I)c1 [Compound 1.884] | very good herbidical action | very good herbicidal action
CCOc1nn(C(=O)NS(=O)(=O)c2cc(C(F)(F)F)ccc2I)c(=O)n1C1CC1 [Compound 1.840] | very good herbidical action | very good herbicidal action
CCOc1nn(C(=O)NS(=O)(=O)c2ccc(C)c(F)c2I)c(=O)n1C [Compound 1.856] | very good herbidical action | very good herbicidal action
CCCOc1nn(C(=O)NS(=O)(=O)c2c(I)cccc2OC(F)F)c(=O)n1C1CC1 [Compound 1.473] | very good herbidical action | very good herbicidal action

Compound | herbicidal action against weed plants (visual scoring of plant damage or emergence damage) [1] | herbicidal action against weed plants (effect scored visually) [2]
COc1nn(C(=O)NS(=O)(=O)c2ccc(C(F)(F)F)cc2I)c(=O)n1C [Compound 1.893] | very good herbidical action | very good herbicidal action
CCOc1nn(C(=O)NS(=O)(=O)c2ccc(C(F)(F)F)cc2I)c(=O)n1C1CC1 [Compound 1.891] | very good herbidical action | very good herbicidal action
CCCCOc1cccc(I)c1S(=O)(=O)NC(=O)n1nc(OCCC)n(C2CC2)c1=O [Compound 1.280] | very good herbidical action | very good herbicidal action
CCCOc1nn(C(=O)NS(=O)(=O)c2ccccc2I)c(=O)n1C [Compound 1.005] | very good herbidical action | very good herbicidal action
COc1ccc(Cl)c(I)c1S(=O)(=O)NC(=O)n1nc(OC)n(C)c1=O [Compound 1.816] | very good herbidical action | very good herbicidal action
COc1cccc(I)c1S(=O)(=O)NC(=O)n1nc(OC)n(C2CC2)c1=O [Compound 1.198] | very good herbidical action | very good herbicidal action
CC(C)Oc1nn(C(=O)NS(=O)(=O)c2c(I)cccc2OCC(F)F)c(=O)n1C [Compound 1.506] | very good herbidical action | very good herbicidal action
CCOc1nn(C(=O)NS(=O)(=O)c2c(I)cccc2OC(F)F)c(=O)n1C [Compound 1.463] | very good herbidical action | very good herbicidal action
CCOc1nn(C(=O)NS(=O)(=O)c2ccccc2I)c(=O)n1C1CC1 [Compound 1.011] | very good herbidical action | very good herbicidal action
CCCOc1nn(C(=O)NS(=O)(=O)c2c(I)cccc2OCC(F)F)c(=O)n1C1CC1 [Compound 1.514] | very good herbidical action | very good herbicidal action
CCCOc1nn(C(=O)NS(=O)(=O)c2c(I)cccc2OS(=O)(=O)N(C)C)c(=O)n1C1CC1 [Compound 1.756] | very good herbidical action | very good herbicidal action
CCCOc1nn(C(=O)NS(=O)(=O)c2cc(C(F)(F)F)ccc2I)c(=O)n1C1CC1 [Compound 1.841] | very good herbidical action | very good herbicidal action
CCCOc1nn(C(=O)NS(=O)(=O)c2ccc(CCC)cc2I)c(=O)n1C [Compound 1.878] | very good herbidical action | very good herbicidal action
CCCOc1nn(C(=O)NS(=O)(=O)c2c(F)cccc2I)c(=O)n1C1CC1 [Compound 1.028] | very good herbidical action | very good herbicidal action
COc1nn(C(=O)NS(=O)(=O)c2c(I)cccc2C(F)(F)F)c(=O)n1C1CC1 [Compound 1.140] | very good herbidical action | very good herbicidal action
COc1ccc(Cl)c(I)c1S(=O)(=O)NC(=O)n1nc(OC)n(C2CC2)c1=O [Compound 1.820] | very good herbidical action | very good herbicidal action
CCSc1nn(C(=O)NS(=O)(=O)c2c(I)cccc2OC)c(=O)n1C [Compound 1.197] | very good herbidical action | very good herbicidal action
CCOc1nn(C(=O)NS(=O)(=O)c2c(C)cccc2I)c(=O)n1C [Compound 1.038] | very good herbidical action | very good herbicidal action
COc1nn(C(=O)NS(=O)(=O)c2ccc(F)cc2I)c(=O)n1C [Compound 1.823] | very good herbidical action | very good herbicidal action
